In article PMC10712729, “A Phase I Trial of the Dual MET Kinase/OCT-2 Inhibitor OMO-1 in Metastatic Solid Malignancies Including MET Exon 14 Mutated Lung Cancer” (The Oncologist, 2023):
Where “and” joins values, the source holds several entries; their conditions need not be identical. Equal entries are not always repeated.

Test: Phase I safety and tolerability of OMO-1 monotherapy, Module 1 Part A dose escalation (drug-related TEAEs, DLTs, RP2D)
Details: for DLTs: first cycle
Text: This study was part of a modular, first-in-patient, openlabel multicenter study of OMO-1, administered orally, mono-therapy, and in combination with EGFR-TKI, in patients with locally advanced, unresectable, or metastatic solid malignancies (study protocol can be). […] Module 1 (OMO-1 monotherapy) consisted of Part A (dose escalation) and Part B (expansion cohorts). Part A assessed the safety and tolerability of ascending doses of OMO-1 given as monotherapy in unselected patients with locally advanced, unresectable, or metastatic malignancies and determined the recommended phase 2 dose (RP2D). Part B assessed the preliminary efficacy of the RP2D of OMO-1 in patients with METex14-positive NSCLC (cohort 1) and patients with MET amplified NSCLC or patients with other MET positive solid tumors, either METex14 or MET amplification (MET basket; cohort 2). The MET status of the tumor was assessed locally by site-specific guidelines. For MET exon 14 skipping mutations next generation sequencing (NGS) was used and for MET amplifications either NGS or fluorescence in situ hybridization (Supplementary 1). Prior treatment with a MET inhibitor was an exclusion criterion.
OMO-1 was administered orally, twice daily (BID) with a minimal interval of 4-5 h with food in a continuous 21 day/cycle regimen until clinical progression or emergence of significant toxicity. The starting dose was 100 mg BID. The dose was escalated sequentially in cohorts of at least 3 patients using a standard 3 + 3 dose escalation design. […] During the monotherapy dose escalation Module 1 Part A, blood samples were collected for PK analysis throughout the study as per protocol (S1).
The dose-limiting toxicity (DLT) evaluation period was within the first cycle of treatment; although all events beyond this point were also reviewed at the time of dose escalation to ensure an OLED was chosen as RP2D.
Safety analyses were descriptive. With respect to primary objectives and endpoints, no specific hypotheses were tested statistically. The primary focus was on determining the safety profile and RP2D, and the identification of a range of biologically active doses and PK of OMO-1 in patients with cancer. Safety, PK, and PD biomarker data were reviewed on an ongoing basis in line with the cohort progression criteria by the Safety Review Committee (SRC).

Structure (SMILES): FC(F)(c1ccc2ncccc2c1)c1nnc2ccc(-c3ccncc3)nn12 [OMO-1]
- Total n with AE, Drug-related TEAEs, SAE (350 mg BID n = 5): 1 (20%) n (%)
- Vomiting, Drug-related TEAEs, All grades (350 mg BID n = 5): 3 (60%) n (%)
- Vomiting, Drug-related TEAEs, SAE (350 mg BID n = 5): 1 (20%) n (%)
- Anemia, Drug-related TEAEs, All grades (400 mg BID n = 3): 1 (33%) n (%)
- Blood bilirubin ↑, Drug-related TEAEs, All grades (400 mg BID n = 3): 1 n (%)
- Blood bilirubin ↑, Drug-related TEAEs, SAE (400 mg BID n = 3): 1 (33%) n (%)
- Blood creatinine ↑, Drug-related TEAEs, All grades (400 mg BID n = 3): 3 (100%) n (%)
- Blood creatinine ↑, Drug-related TEAEs, SAE (400 mg BID n = 3): 1 (33%) n (%)
- Chills/ influenza like symptoms, Drug-related TEAEs, All grades (400 mg BID n = 3): 1 (33%) n (%)
- Chills/ influenza like symptoms, Drug-related TEAEs, Grade ≥3 (400 mg BID n = 3): 1 (33%) n (%)
- Chills/ influenza like symptoms, Drug-related TEAEs, SAE (400 mg BID n = 3): 1 (33%) n (%)
- Decreased appetite, Drug-related TEAEs, All grades (400 mg BID n = 3): 0 n (%)
- Diarrhoea, Drug-related TEAEs, All grades (400 mg BID n = 3): 1 (33%) n (%)
- Diarrhoea, Drug-related TEAEs, SAE (400 mg BID n = 3): 1 (33%) n (%)
- Fatigue, Drug-related TEAEs, All grades (400 mg BID n = 3): 2 (67%) n (%)
- Nausea, Drug-related TEAEs, All grades (400 mg BID n = 3): 1 (33%) n (%)
- Nausea, Drug-related TEAEs, SAE (400 mg BID n = 3): 1 (33%) n (%)
- Neutrophil count↓, Drug-related TEAEs, All grades (400 mg BID n = 3): 1 n (%)
- Neutrophil count↓, Drug-related TEAEs, SAE (400 mg BID n = 3): 1 (33%) n (%)
- Tachycardia, Drug-related TEAEs, All grades (400 mg BID n = 3): 1 (33%) n (%)
- Total n with AE, Drug-related TEAEs, All grades (400 mg BID n = 3): 3 (100%) n (%)
- Total n with AE, Drug-related TEAEs, Grade ≥3 (400 mg BID n = 3): 1 (33%) n (%)
- Total n with AE, Drug-related TEAEs, SAE (400 mg BID n = 3): 2 (67%) n (%)
- patients discontinued due to related toxicity (100, 200, and 250 mg BID): 25% (4/16)
- Anemia, Drug-related TEAEs, All grades (All doses n = 24): 4 (17%) n (%)
- Anemia, Drug-related TEAEs, Grade ≥3 (All doses n = 24): 1 (4%) n (%)
- Blood bilirubin ↑, Drug-related TEAEs, All grades (All doses n = 24): 1 (4%) n (%)
- Blood bilirubin ↑, Drug-related TEAEs, SAE (All doses n = 24): 1 (4%) n (%)
- Blood creatinine ↑, Drug-related TEAEs, All grades (All doses n = 24): 9 (38%) n (%)
- Blood creatinine ↑, Drug-related TEAEs, Grade ≥3 (All doses n = 24): 1 (4%) n (%)
- Blood creatinine ↑, Drug-related TEAEs, SAE (All doses n = 24): 1 (4%) n (%)
- Chills/ influenza like symptoms, Drug-related TEAEs, All grades (All doses n = 24): 3 (13%) n (%)
- Chills/ influenza like symptoms, Drug-related TEAEs, Grade ≥3 (All doses n = 24): 1 (4%) n (%)
- Chills/ influenza like symptoms, Drug-related TEAEs, SAE (All doses n = 24): 2 (8%) n (%)
- Decreased appetite, Drug-related TEAEs, All grades (All doses n = 24): 4 (17%) n (%)
- Diarrhoea, Drug-related TEAEs, SAE (All doses n = 24): 1 (4%) n (%)
- Dizziness, Drug-related TEAEs, All grades (All doses n = 24): 4 (17%) n (%)
- Fatigue, Drug-related TEAEs, All grades (All doses n = 24): 10 (42%) n (%)
- Fatigue, Drug-related TEAEs, Grade ≥3 (All doses n = 24): 1 (4%) n (%)
- Headache, Drug-related TEAEs, All grades (All doses n = 24): 5 (21%) n (%)
- Nausea, Drug-related TEAEs, Grade ≥3 (All doses n = 24): 1 (4%) n (%)
- Nausea, Drug-related TEAEs, SAE (All doses n = 24): 3 n (%) and 3 (13%) n (%)
- Neutrophil count↓, Drug-related TEAEs, All grades (All doses n = 24): 1 (4%) n (%)
- Neutrophil count↓, Drug-related TEAEs, SAE (All doses n = 24): 1 (4%) n (%)
- Tachycardia, Drug-related TEAEs, All grades (All doses n = 24): 3 (13%) n (%)
- Total n with AE, Drug-related TEAEs, All grades (All doses n = 24): 23 (96%) n (%)
- Total n with AE, Drug-related TEAEs, Grade ≥3 (All doses n = 24): 6 (25%) n (%)
- Total n with AE, Drug-related TEAEs, SAE (All doses n = 24): 7 n (%) and 7 (29%) n (%)
- Vomiting, Drug-related TEAEs, All grades (All doses n = 24): 9 (38%) n (%)
- Vomiting, Drug-related TEAEs, Grade ≥3 (All doses n = 24): 2 (8%) n (%)
- Vomiting, Drug-related TEAEs, SAE (All doses n = 24): 2 n (%) and 2 (8%) n (%)
- grade 5 (fatal) TEAEs (Module 1 Part A): No grade 5 (fatal) TEAEs
- number of drug-related SAEs (Module 1 Part A, all doses): 11
- number of drug-related TEAE recorded (Module 1 Part A, all doses): 129
- patients discontinued due to toxicity related to OMO-1, in total (Module 1 Part A, all doses): 8 patients
- patients with drug-related TEAE (Module 1 Part A, all doses): 23 out of 24
- DLTs (cohort 1 (100 mg BID)): no DLTs
- DLTs (cohort 2 (200 mg BID)): no DLTs
- number of TEAEs that led to OMO-1 treatment discontinuation (cohort 3 (400 mg BID)): 6 TEAEs
- patients requiring a dose reduction due to treatment-related toxicity (cohort 3 (400 mg BID)): 2 out of 3
- DLTs (cohort 3 (400 mg BID)): no DLTs
- DLTs (cohort 4 (250 mg BID)): No DLTs
- peripheral edema related to OMO-1 (in vivo): No reports
- recommended phase 2 dose (RP2D) (oral monotherapy, 3 + 3 dose escalation, continuous 21 day/cycle): 250 mg BID
